This is an account of results in US10052320B2, “Substituted quinoxalines as FGFR kinase inhibitors” (ASTEX THERAPEUTICS LIMITED, priority 2011, dated 2018).

One assay deals with FGFR2 (h) (Homo sapiens, UniProt P21802). Put plainly: FGFR2 (enzymatic assay), TR-FRET. It counts as biochemical. The note with it: read-out: FGFR 2 pIC50 (converted). Here is the method: In a final reaction volume of 30 μL, FGFR2 (h) (150 ng/ml) was incubated with 50 mM HEPES pH 7.5, 6 mM MnCl2, 1 mM DTT, 0.1 mM Na3VO4, 0.01% Triton-X-100, 500 nM Btn-Flt3 and 0.4 μM ATP in the presence of compound (1% DMSO final). […] Time-Resolved Fluorescence Resonance Energy Transfer (TR-FRET) signal (ex340 nm. Em 620 nm, em 655 nm) was measured afterwards and results are expressed in (Relative Fluorescence Units).
FGFR2 (h), sequence (P21802 22-821): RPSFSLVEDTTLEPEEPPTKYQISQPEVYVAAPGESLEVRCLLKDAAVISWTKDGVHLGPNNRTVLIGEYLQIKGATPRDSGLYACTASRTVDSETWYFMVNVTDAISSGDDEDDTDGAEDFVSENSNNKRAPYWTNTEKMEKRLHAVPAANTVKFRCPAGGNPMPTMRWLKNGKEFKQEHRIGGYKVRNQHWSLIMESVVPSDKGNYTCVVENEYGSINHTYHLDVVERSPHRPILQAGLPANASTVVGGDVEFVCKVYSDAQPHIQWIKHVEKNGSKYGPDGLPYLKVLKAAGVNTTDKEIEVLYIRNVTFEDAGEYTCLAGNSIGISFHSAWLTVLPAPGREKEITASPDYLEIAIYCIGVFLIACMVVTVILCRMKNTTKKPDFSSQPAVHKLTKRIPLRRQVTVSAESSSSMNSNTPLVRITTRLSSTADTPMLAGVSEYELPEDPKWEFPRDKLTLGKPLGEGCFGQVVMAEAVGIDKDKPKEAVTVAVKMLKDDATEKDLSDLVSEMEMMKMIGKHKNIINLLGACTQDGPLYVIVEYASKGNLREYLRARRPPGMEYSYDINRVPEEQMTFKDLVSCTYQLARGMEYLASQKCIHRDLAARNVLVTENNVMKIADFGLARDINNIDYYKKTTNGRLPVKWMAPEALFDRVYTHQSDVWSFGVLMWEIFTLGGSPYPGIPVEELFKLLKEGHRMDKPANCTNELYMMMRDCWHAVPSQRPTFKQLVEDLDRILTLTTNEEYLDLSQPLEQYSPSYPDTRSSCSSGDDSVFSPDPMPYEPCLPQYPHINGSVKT

The next assay addresses FGFR3 (h) (Homo sapiens, UniProt P22607). The experiment in a line: FGFR3 (enzymatic assay), TR-FRET. Format: biochemical. The note with it: read-out: FGFR 3 pIC50 (converted). Here is the method:
In a final reaction volume of 30 μL, FGFR3 (h) (40 ng/ml) was incubated with 50 mM HEPES pH 7.5, 6 mM MnCl2, 1 mM DTT, 0.1 mM Na3VO4, 0.01% Triton-X-100, 500 nM Btn-Flt3 and 25 μM ATP in the presence of compound (1% DMSO final). […] Time-Resolved Fluorescence Resonance Energy Transfer (TR-FRET) signal (ex340 nm. Em 620 nm, em 655 nm) was measured afterwards and results are expressed in RFU (Relative Fluorescence Units).

In the next assay the target is FGFR4 (h) (Homo sapiens, UniProt P22455). The experiment in a line: FGFR4 (enzymatic assay), TR-FRET. The note with it: read-out: FGFR 4 pIC50 (converted). It counts as biochemical. The method, then: In a final reaction volume of 30 μL, FGFR4 (h) (60 ng/ml) was incubated with 50 mM HEPES pH 7.5, 6 mM MnCl2, 1 mM DTT, 0.1 mM Na3VO4, 0.01% Triton-X-100, 500 nM Btn-Flt3 and 5 μM ATP in the presence of compound (1% DMSO final). […] Time-Resolved Fluorescence Resonance Energy Transfer (TR-FRET) signal (ex340 nm. Em 620 nm, em 655 nm) was measured afterwards and results are expressed in RFU (Relative Fluorescence Units).
FGFR4 (h), sequence (P22455 22-802): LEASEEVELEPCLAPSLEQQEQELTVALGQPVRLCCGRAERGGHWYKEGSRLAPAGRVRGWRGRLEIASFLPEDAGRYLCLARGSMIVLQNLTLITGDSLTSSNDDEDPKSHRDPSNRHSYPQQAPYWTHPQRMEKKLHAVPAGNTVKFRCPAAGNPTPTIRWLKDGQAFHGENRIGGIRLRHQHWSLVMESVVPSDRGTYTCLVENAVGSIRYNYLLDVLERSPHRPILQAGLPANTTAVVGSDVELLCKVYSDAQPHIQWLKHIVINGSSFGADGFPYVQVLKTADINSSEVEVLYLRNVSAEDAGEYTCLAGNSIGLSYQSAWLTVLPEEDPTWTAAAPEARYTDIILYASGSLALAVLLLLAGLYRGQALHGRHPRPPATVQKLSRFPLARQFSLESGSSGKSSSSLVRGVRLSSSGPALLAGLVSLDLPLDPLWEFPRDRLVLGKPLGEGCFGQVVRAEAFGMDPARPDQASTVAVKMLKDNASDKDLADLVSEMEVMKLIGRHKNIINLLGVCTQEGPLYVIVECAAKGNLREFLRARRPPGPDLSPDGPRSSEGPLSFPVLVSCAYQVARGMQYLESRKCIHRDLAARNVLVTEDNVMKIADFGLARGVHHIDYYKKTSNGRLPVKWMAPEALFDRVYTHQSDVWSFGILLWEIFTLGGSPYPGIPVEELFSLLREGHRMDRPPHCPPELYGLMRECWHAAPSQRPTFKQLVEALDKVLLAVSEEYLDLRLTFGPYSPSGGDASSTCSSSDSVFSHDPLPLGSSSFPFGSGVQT

The target in a further assay is KDR (h) (VEGFR2) (Homo sapiens, UniProt P35968). Put plainly: KDR (VEGFR2) (enzymatic assay), TR-FRET. It counts as biochemical. In outline:
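Human KDR (150 ng/ml) was reacted with 500 nM Btn-Flt3 and 3 μM ATP in 50 mM HEPES pH 7.5, 6 mM MnCl2, 1 mM DTT, 0.1 mM Na3VO4, 0.01% Triton X-100, 1% DMSO, for 120 min at room temperature. Phosphorylation detected by TR-FRET (Eu-anti-P-Tyr/SA-XL665, 60 min), read in RFU.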

The target in assay [1] is Ba/F3-KDR-transfected cells (Homo sapiens, UniProt P35968). Put plainly: Ba/F3-KDR (minus IL3) cellular proliferation assay, Alamar Blue. Format: cell-based. The note with it: minus IL3. The method in brief: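 Ba/F3-KDR cells in RPMI-1640 with 10% FBS, 20000 (384-well) or 10000 (96-well) per well, given compound for 24 h at 37° C; Alamar Blue then added for 4 h and fluorescence read (ex 540/em 590 nm). Counterscreen run identically with 10 ng/ml murine IL3.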
Ba/F3-KDR-transfected cells, sequence (P35968 whole entry, change not shown): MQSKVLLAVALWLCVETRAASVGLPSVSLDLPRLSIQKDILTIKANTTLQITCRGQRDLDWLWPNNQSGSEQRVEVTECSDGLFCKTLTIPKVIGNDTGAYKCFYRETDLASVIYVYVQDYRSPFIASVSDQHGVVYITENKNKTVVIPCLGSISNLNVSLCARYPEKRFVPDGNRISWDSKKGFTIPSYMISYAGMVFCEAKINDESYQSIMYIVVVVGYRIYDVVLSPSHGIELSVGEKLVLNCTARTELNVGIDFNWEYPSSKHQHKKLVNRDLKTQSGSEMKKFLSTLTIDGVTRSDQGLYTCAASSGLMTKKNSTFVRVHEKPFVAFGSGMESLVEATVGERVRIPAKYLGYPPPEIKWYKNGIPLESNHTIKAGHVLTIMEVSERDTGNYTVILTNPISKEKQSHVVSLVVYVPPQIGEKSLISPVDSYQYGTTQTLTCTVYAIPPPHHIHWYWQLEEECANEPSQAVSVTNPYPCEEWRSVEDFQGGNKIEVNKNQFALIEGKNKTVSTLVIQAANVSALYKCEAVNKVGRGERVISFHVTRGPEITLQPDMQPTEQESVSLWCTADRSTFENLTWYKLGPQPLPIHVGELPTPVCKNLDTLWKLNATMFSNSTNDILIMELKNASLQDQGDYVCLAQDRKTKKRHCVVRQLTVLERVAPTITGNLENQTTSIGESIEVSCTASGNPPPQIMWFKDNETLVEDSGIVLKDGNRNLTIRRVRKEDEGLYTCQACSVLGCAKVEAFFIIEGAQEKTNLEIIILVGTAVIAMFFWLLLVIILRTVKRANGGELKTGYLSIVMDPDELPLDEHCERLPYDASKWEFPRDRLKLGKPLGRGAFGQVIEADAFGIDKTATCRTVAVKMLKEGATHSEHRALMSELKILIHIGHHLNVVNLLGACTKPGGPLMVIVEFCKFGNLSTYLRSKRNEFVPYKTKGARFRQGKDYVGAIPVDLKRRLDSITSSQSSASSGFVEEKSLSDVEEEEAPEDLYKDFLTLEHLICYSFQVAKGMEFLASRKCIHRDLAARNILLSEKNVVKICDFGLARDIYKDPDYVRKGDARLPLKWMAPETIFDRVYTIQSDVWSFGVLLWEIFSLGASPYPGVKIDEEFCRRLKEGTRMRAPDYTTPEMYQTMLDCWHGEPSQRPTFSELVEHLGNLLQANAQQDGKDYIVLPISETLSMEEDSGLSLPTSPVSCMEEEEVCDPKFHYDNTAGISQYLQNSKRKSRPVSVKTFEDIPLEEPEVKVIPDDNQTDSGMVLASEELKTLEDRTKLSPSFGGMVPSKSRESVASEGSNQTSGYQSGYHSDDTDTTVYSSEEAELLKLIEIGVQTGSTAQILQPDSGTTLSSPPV

For assay [2], the system named is Ba/F3-Flt3-transfected cells in the presence of 10 ng/ml murine IL3. Put plainly: Ba/F3-Flt3 (plus IL3) cellular proliferation counterscreen, Alamar Blue. Format: cell-based. As to conditions: Mus musculus; plus 10 ng/ml murine IL3; read-out: BAF3-FLT3 (PLUS IL3) 384 well pIC50 (converted).

FGFR3 (h), sequence (P22607 23-806): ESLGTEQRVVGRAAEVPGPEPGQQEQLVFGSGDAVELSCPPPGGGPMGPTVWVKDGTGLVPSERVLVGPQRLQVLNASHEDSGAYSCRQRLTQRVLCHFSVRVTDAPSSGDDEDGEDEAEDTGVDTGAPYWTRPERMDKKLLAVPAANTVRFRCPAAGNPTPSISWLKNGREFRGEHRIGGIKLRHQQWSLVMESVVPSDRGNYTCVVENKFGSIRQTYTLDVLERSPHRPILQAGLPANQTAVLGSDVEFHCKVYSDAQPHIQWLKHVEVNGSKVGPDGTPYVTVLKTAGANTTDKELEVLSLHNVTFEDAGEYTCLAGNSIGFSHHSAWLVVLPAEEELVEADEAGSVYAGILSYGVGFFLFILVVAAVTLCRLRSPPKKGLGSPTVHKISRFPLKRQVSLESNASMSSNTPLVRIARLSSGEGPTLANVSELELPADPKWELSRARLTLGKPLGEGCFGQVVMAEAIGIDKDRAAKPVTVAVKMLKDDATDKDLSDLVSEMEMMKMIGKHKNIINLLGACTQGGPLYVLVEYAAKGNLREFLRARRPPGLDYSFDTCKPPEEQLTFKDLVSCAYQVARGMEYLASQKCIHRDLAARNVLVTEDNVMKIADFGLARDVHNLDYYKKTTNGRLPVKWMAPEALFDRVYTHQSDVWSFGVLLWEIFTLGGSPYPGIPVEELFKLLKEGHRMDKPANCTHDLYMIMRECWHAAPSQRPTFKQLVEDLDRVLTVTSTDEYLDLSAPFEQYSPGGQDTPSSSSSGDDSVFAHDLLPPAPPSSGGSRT
KDR (h) (VEGFR2), sequence (P35968 20-1356): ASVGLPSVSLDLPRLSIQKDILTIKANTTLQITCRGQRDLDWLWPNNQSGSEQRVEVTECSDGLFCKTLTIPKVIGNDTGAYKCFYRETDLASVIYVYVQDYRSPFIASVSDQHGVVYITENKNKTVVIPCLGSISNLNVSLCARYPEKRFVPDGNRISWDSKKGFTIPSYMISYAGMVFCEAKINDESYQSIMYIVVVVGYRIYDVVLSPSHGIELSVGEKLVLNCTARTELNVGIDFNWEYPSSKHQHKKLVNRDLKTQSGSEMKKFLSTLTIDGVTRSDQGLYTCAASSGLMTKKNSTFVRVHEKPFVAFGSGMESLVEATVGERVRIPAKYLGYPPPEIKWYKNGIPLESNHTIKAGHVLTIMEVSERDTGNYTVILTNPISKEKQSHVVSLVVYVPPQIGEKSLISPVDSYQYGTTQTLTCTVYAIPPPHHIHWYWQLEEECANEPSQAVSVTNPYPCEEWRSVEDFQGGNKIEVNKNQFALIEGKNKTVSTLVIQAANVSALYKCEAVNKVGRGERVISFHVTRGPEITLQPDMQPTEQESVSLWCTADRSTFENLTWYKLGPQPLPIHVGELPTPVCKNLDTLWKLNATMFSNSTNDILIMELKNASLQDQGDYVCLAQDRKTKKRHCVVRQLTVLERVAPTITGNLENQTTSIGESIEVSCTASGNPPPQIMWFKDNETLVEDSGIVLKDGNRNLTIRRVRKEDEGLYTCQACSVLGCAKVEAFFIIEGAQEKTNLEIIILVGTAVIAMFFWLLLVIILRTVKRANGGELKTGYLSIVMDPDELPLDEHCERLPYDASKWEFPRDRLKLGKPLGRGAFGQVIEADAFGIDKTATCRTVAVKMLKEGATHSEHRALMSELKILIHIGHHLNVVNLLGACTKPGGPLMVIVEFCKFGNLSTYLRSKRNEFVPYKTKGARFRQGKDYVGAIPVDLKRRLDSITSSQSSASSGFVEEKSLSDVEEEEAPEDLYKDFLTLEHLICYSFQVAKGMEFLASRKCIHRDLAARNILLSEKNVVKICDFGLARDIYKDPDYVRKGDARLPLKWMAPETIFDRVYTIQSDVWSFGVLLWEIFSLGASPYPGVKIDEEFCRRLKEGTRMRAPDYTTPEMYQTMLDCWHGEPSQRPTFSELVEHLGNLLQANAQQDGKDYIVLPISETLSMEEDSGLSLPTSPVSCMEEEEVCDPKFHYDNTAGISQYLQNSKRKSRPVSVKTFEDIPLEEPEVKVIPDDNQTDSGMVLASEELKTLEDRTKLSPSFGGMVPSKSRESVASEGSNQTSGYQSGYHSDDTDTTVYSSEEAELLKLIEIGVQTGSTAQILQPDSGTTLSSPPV

As to `COc1cc(OC)cc(N(CCCO)c2ccc3ncc(-c4ccc(N5CCNCC5)nc4)nc3c2)c1` [Compound 48], the IC50 is 4.07 nM on FGFR2 (h); 3.31 nM on FGFR3 (h); 15.5 nM at FGFR4 (h); 110 nM against KDR (h) (VEGFR2); 4170 nM in assay [2]. Moreover, the “BAF3-KDR (MIN IL3) 384 well pIC50” value in assay [1] was 5.39.

Turning to `COc1cc(OC)cc(N(CC2CC2)c2ccc3ncc(-c4nnnn4C)nc3c2)c1` [Compound 83], the IC50 is more than 1000 nM on FGFR2 (h); more than 1000 nM at FGFR3 (h); more than 1000 nM at FGFR4 (h); more than 1000 nM against KDR (h) (VEGFR2); more than 10000 nM in assay [2]. Further, the “BAF3-KDR (MIN IL3) 96 well pIC50” value in assay [1] is less than 5. For the same compound, the “BAF3-KDR (MIN IL3) 384 well pIC50” value in assay [1] is given as less than 5.

Regarding `COc1cc(OC)cc(N(CC2CC2)c2ccc3ncc(-c4ccn[nH]4)nc3c2)c1` [Compound 58], the IC50 on FGFR2 (h) is 537 nM; on FGFR3 (h) it was 81.3 nM; on FGFR4 (h), 550 nM; on KDR (h) (VEGFR2), more than 1000 nM; in assay [2], 8320 nM. In addition, the “BAF3-KDR (MIN IL3) 384 well pIC50” value in assay [1] is given as less than 5.

As for `COc1cc(OC)cc(N(CCNC(C)C)c2ccc3ncc(-c4ccncc4)nc3c2)c1` [Compound 12], the IC50 was 2.45 nM at FGFR2 (h); 4.47 nM at FGFR3 (h); 20.4 nM on FGFR4 (h); 95.5 nM against KDR (h) (VEGFR2); more than 10000 nM in assay [2]. Also, the “BAF3-KDR (MIN IL3) 384 well pIC50” value in assay [1] was 5.53.
